The nature of data set [1]: LD50 in mice (Weil's method). To be noted: mouse, in vivo; intravenous route, male Albino Swiss mice. How it is done: LD50 was assessed according to the Carrol S. WEIL's method (Biometrics, pages […] (1952)) on male Albino Swiss mice weighing 22-24 g. The compounds dissolved in […] saline solution were administered via the intravenous route.
The nature of another data set: Tolerability in mice. The arrangement: species or system mice (male albino Swiss). The settings on record: mouse, in vivo, read-out: TOLERABILITY dose. The protocol: Male albino Swiss mice weighing 22-24 g were used in this test.
One group of animals (4/dose) which had been kept fasting for 18 hours was orally administered the compounds dissolved in twice distilled water. The same compounds dissolved in saline at pH=7 were intravenously injected in a further group of animals which had free access to food and drinking water. All of the animals were monitored for 7 days.

Another data set has as its system Normotensive cats. The data set is described as follows: Measure of arterial pressure in cats (hypotensive effect in normotensive cats). For EFFECT DURATION (hypotension in normotensive cats): key: S: short; A: average; L: long. To be noted: via crural vein. The data set is classed as in vivo.
The next data set concerns SHR hypertensive rats. In words: Non-invasive measure of arterial pressure in genetically hypertensive rats (SHR). The data set is classed as in vivo, rats (male SHR). How it is done:
(b) Non-invasive measure of arterial pressure in genetically hypertensive rats.
Male SHR rats (Charles River) of 3-4 months were used in this test. The compounds listed were dissolved in either 0.9% saline or twice distilled water and administered via the oral route or i.p. (50-100 mg/5 ml/kg).
The animals, housed in individual cages at 23° C. and 60% humidity, had free access to food and drinking water. A BP recorder (Letica) equipped with a two-way polygraph was used. The systolic and diastolic pressure and the heart rate were recorded. The animals, a few days before the test began, were accustomed to be constrained on a heating plate (at 38° C.±1° C.) for 20 minutes).
During the pre-tests, the assessments were made at time 0 (8^30 -9^30 a.m.) and after 1, 2 and 4 hours.
Every assessment was the average of 3 measures and the maximum residence time of the animal in the thermostatized chamber (for the whole test duration) was 40 minutes.
Student's "t" test was used for assessing the difference with respect to the control group and its own 0 time.

The mark [2] stands for this setting: iv, e.p. (head), intravenously injected in saline pH 7, monitored 7 days.
Setting [3] is: os (oral), fasted mice, monitored 7 days.

Structures are written as SMILES. Counter-ions that a name gives are not always drawn. Like-named read-outs stand apart in the source and are kept apart here.

Procedure for Normotensive cats: (a) Measure of arterial pressure in cats.
Normotensive cats of either sex weighing 2.5-3.5 kgs were used in this test.
The animals fasted for 18 hours were anesthetized with Na Nembutal (30 mg/kg) and ethyl urethane (300 mg/kg i.p.). The crural vein and artery of the animals were cannulated, the former for administering the compounds, the latter for monitoring the arterial pressure. The arterial pressure was measured via a mercury gauge connected to a rotating kymograph.
The compounds were dissolved in sterile 0.9% saline and administered at physiological pH in a 0.5 ml/kg volume.

The LD50 is the dose expected to kill half of the subjects tested. The low end stands for a more toxic substance, the high end for a less toxic substance. In the case of `COc1cc2c(cc1OC)CC(NC(=O)C(N)Cc1c[nH]c3ccccc13)CC2` (stereo not shown) [ST 580, 2-N-tryptophylamino-6,7-dimethoxy tetraline hydrochloride], in data set [1], the LD50 turned out to be 66.7 mg/kg. Further, the MTD at 168 h in “Tolerability in mice” (setting [2]) and in the data set “Tolerability in mice” (setting [3]) was > 50 mg/kg throughout. Besides, the “HYPOTENSIVE EFFECT IN NORMOTENSIVE CATS, hypotension” value with Normotensive cats (dose 1-4 mg/kg) was determined as 0 mm Hg.

Regarding `COc1cc2c(cc1OC)CC(NC(=O)C(N)CCSC)CC2` (stereo not shown) [ST 581, 2-N-methionylamino-6,7-dimethoxy tetraline hydrochloride], the median lethal dose (LD50) in data set [1] amounted to 74 mg/kg. Also, the MTD at 168 h in “Tolerability in mice” (setting [2]) and in the data set “Tolerability in mice” (setting [3]) was > 50 mg/kg in each case. For the same compound, the “HYPOTENSIVE EFFECT IN NORMOTENSIVE CATS, hypotension” value in the data set on Normotensive cats (dose 1-4 mg/kg) is given as 0 mm Hg.

For the compound `COc1cc2c(cc1OC)CC(NC(=O)CN)CC2` (stereo not shown) [ST 582, 2-N-glycylamino-6,7-dimethoxy tetraline hydrochloride], the LD50 in data set [1] amounted to 72.3 mg/kg. Besides, the “ANTIHYPERTENSIVE EFFECT IN SHR HYPERTENSIVE RATS” value was -37 mm Hg in the data set on SHR hypertensive rats (50 mg/kg i.p., 1st h); -27 mm Hg in the data set on SHR hypertensive rats (50 mg/kg i.p., 2nd h); 0 mm Hg in the data set with SHR hypertensive rats (50 mg/kg i.p., 4th h). The MTD at 168 h in “Tolerability in mice” (setting [2]) and in “Tolerability in mice” (setting [3]) was > 50 mg/kg throughout. In the data set with Normotensive cats (dose 10 mg/kg), the “EFFECT DURATION (hypotension in normotensive cats)” value (shortened to “EFFECT DURATION”) was “S”.

With `COc1cc2c(cc1OC)CC(NC(=O)[C@H](C)NC(=O)[C@@H](N)CC(C)C)CC2.Cl` (stereo partly shown) [ST 584, 2-(N-leucylalanyl)amino-6,7-dimethoxy tetraline hydrochloride], in data set [1], the 50% lethal dose (LD50) is 167 mg/kg. The “ANTIHYPERTENSIVE EFFECT IN SHR HYPERTENSIVE RATS” value in the data set with SHR hypertensive rats (dose "10C" [sic] mg/kg os, 1st h) was -12 mm Hg; in the data set on SHR hypertensive rats (dose "10C" [sic] mg/kg os, 2nd h), 0 mm Hg; with SHR hypertensive rats (dose "10C" [sic] mg/kg os, 4th h), 0 mm Hg. The MTD at 168 h in the data set “Tolerability in mice” (setting [2]) and in “Tolerability in mice” (setting [3]) was > 50 mg/kg in each case.

`COc1cc2c(cc1OC)CC(NC(=O)[C@H](C)NC(=O)[C@@H](N)Cc1c[nH]c3ccccc13)CC2` (stereo partly shown) [ST 585, 2-(N-tryptophylalanyl)amino-6,7-dimethoxy tetraline hydrochloride]: in data set [1], the median lethal dose (LD50) is 115 mg/kg. The MTD at 168 h in “Tolerability in mice” (setting [2]) and in “Tolerability in mice” (setting [3]) was > 50 mg/kg throughout. In addition, in the data set on Normotensive cats (dose 4 mg/kg), the “HYPOTENSIVE EFFECT IN NORMOTENSIVE CATS, hypotension” value was found to be 0 mm Hg. For the same compound, in the data set on Normotensive cats (dose 10 mg/kg), the “EFFECT DURATION” value is “S”.

On to `COc1cc2c(cc1OC)CC(NC(=O)[C@H](C)NC(=O)[C@@H](N)CCSC)CC2.Cl` (stereo partly shown) [ST 586, 2-(N-methionylalanyl)amino-6,7-dimethoxy tetraline hydrochloride], for which, in data set [1], the LD50 turned out to be 229 mg/kg. In addition, the MTD at 168 h in “Tolerability in mice” (setting [2]) and in “Tolerability in mice” (setting [3]) was > 50 mg/kg each time. For the same compound, the “HYPOTENSIVE EFFECT IN NORMOTENSIVE CATS, hypotension” value in the data set with Normotensive cats (dose 2 mg/kg) is given as 0 mm Hg. Besides, the “EFFECT DURATION” value with Normotensive cats (dose 4 mg/kg) is “S”.

`COc1cc2c(cc1OC)CC(NC(=O)C(N)Cc1ccc(O)cc1)CC2` (stereo not shown) [ST 589, 2-N-tyrosyl-6,7-dimethoxy tetraline hydrochloride]: the LD50 in data set [1] came to 218 mg/kg. The “ANTIHYPERTENSIVE EFFECT IN SHR HYPERTENSIVE RATS” value in the data set on SHR hypertensive rats (100 mg/kg os, 1st h) is -26 mm Hg; in the data set with SHR hypertensive rats (100 mg/kg os, 2nd h), -20 mm Hg; in the data set on SHR hypertensive rats (100 mg/kg os, 4th h) it was 0 mm Hg. Also, the MTD at 168 h in the data set “Tolerability in mice” (setting [2]) and in “Tolerability in mice” (setting [3]) was > 50 mg/kg throughout. Also, the “EFFECT DURATION” value in the data set on Normotensive cats (dose 1 mg/kg) and in the data set with Normotensive cats (dose 2 mg/kg) was “S” throughout.

Consider `CCN(C(=O)[C@H](C)NC(=O)[C@@H](N)Cc1c[nH]c2ccccc12)C1CCc2cc(OC)c(OC)cc2C1` (stereo partly shown) [ST 604, 2-(N-ethyl,N-tryptophylalanyl)amino-6,7-dimethoxy tetraline hydrochloride], for which, in data set [1], the LD50 was found to be 85 mg/kg. The MTD at 168 h in “Tolerability in mice” (setting [2]) and in the data set “Tolerability in mice” (setting [3]) was > 50 mg/kg each time. In the data set with Normotensive cats (dose 1-4 mg/kg), the “HYPOTENSIVE EFFECT IN NORMOTENSIVE CATS, hypotension” value was found to be 0 mm Hg.

Compound `COc1cc2c(cc1OC)CC(NC(=O)[C@H](C)NC(=O)[C@@H](N)Cc1ccc(O)cc1)CC2.Cl` (stereo partly shown) [ST 605, 2-(N-tyrosylalanyl)amino-6,7-dimethoxy tetraline hydrochloride] registered an LD50 in data set [1] of 72.3 mg/kg. The “ANTIHYPERTENSIVE EFFECT IN SHR HYPERTENSIVE RATS” value with SHR hypertensive rats (100 mg/kg e.p., 1st h) is reported as -40 mm Hg; in the data set on SHR hypertensive rats (100 mg/kg e.p., 2nd h), -38 mm Hg; in the data set with SHR hypertensive rats (100 mg/kg e.p., 4th h), -29 mm Hg; with SHR hypertensive rats (100 mg/kg os, single administration (*), 2nd h), -28 mm Hg; with SHR hypertensive rats (100 mg/kg os, single administration (*), 4th h) it was -31 mm Hg; in the data set on SHR hypertensive rats (repeated administration (5 days) (**), dose column "--" below 100 os, 2nd h), -35 mm Hg. In addition, in the data set with SHR hypertensive rats (repeated administration (5 days) (**), dose column "--" below 100 os, 4th h), the “ANTIHYPERTENSIVE EFFECT IN SHR HYPERTENSIVE RATS” value is reported as -17 mm Hg. For the same compound, the MTD at 168 h in “Tolerability in mice” (setting [2]) and in “Tolerability in mice” (setting [3]) was > 50 mg/kg throughout. Besides, in the data set on Normotensive cats (dose 1 mg/kg), the “HYPOTENSIVE EFFECT IN NORMOTENSIVE CATS, hypotension” value stood at 0 mm Hg. Moreover, in the data set on Normotensive cats (dose 2 mg/kg), the “EFFECT DURATION” value is reported as “S”.

On to `CCN(C(=O)[C@H](C)NC(=O)[C@@H](N)CCSC)C1CCc2cc(OC)c(OC)cc2C1` (stereo partly shown) [ST 606, 2-(N-ethyl,N-methionylalanyl)amino-6,7-dimethoxy tetraline hydrochloride], for which, in data set [1], the LD50 was determined as 150 mg/kg. The MTD at 168 h in “Tolerability in mice” (setting [2]) and in “Tolerability in mice” (setting [3]) was > 50 mg/kg each time. Further, the “EFFECT DURATION” value in the data set with Normotensive cats (dose 1 mg/kg), with Normotensive cats (dose 2 mg/kg) and with Normotensive cats (dose 4 mg/kg) was “S” throughout.

Values taken from patent publication US5053424A, “2-(N-acyl)amino-6,7-dimethoxy tetralines, and pharmaceutical compositions having antihypertensive activity containing same” (Sigma-Tau Industrie Farmaceutiche Riunite S.p.A., priority 1989, dated 1991).
